Measured values reported in US20140121103A1, “COMPOSITIONS COMPRISING FUNGICIDAL SUBSTITUTED DITHIINES AND FURTHER ACTIVES” (BASF SE, priority 2011, published 2014).
Where two headings read alike, the source gives them in different places.

Experiments:
Format in all cases: cell-based
Botrytis cinerea = assay: Activity against the grey mold Botrytis cinerea in the microtiterplate test; settings: active alone
Leptosphaeria nodorum = assay: Activity against wheat leaf spots caused by Leptosphaeria nodorum (microtiter plate)
Alternaria solani = assay: Activity against early blight caused by Alternaria solani (microtiter plate); settings: active alone
Septoria tritici = assay: Activity against leaf blotch on wheat caused by Septoria tritici (microtiter plate); settings: active alone
Pyricularia oryzae = settings: active alone
[1] = Parastagonospora nodorum, 168 h, active alone, read-out: Observed efficacy

Work on `N#Cc1c(Cl)c(Cl)c(Cl)c(C#N)c1Cl` [Chlorothalonil] yielded an Observed efficacy (Botrytis cinerea; 4 ppm) of 58%, an inhibition of growth at 1 ppm (Leptosphaeria nodorum; [1]) of 22% and an Observed efficacy (Alternaria solani; 1 ppm) of 17%.
In the case of `CCCN(CCOc1c(Cl)cc(Cl)cc1Cl)C(=O)n1ccnc1` [Prochloraz], the Observed efficacy (Septoria tritici; 0.063 ppm) is reported as 20%.
For `COC(=O)N(OC)c1ccccc1COc1ccn(-c2ccc(Cl)cc2)n1` [Pyraclostrobin], the inhibition of growth at 0.25 ppm (Leptosphaeria nodorum; Parastagonospora nodorum, 168 h, active alone, 0.25 ppm, read-out: Observed efficacy) was 57%.
`Cc1ccc(-c2c(Cl)nc(C#N)n2S(=O)(=O)N(C)C)cc1` [Cyazofamid] gave an Observed efficacy (Pyricularia oryzae; 1 ppm) of 8%, an Observed efficacy (Septoria tritici; 1 ppm) of 2% and an inhibition of growth at 1 ppm (Leptosphaeria nodorum; [1]) of 25%.
`Cn1cc(C(=O)Nc2ccccc2-c2cc(F)c(F)c(F)c2)c(C(F)F)n1` [Fluxapyroxad] gave an Observed efficacy (Pyricularia oryzae; 0.063 ppm) of 7% and an Observed efficacy (Leptosphaeria nodorum; active alone, 0.063 ppm) of 23%.
With `Cc1cc(C)nc(Nc2ccccc2)n1` [Pyrimethanil] the Observed efficacy (Pyricularia oryzae; 16 ppm) was 72%.
For `OC(Cc1ccccc1Cl)(Cn1nc[nH]c1=S)C1(Cl)CC1` (centres unmarked) [Prothioconazol], the inhibition of growth at 1 ppm (Leptosphaeria nodorum; [1]) was 52%.
`CC(C)(C)C(O)(CCc1ccc(Cl)cc1)Cn1cncn1` (centres unmarked) [Tebuconazol] showed an Observed efficacy (Septoria tritici; 0.25 ppm) of 54%.
Work on `COC(=O)Nc1nc2ccccc2[nH]1` [Carbendazim] yielded an Observed efficacy (Botrytis cinerea; 0.063 ppm) of 75%, an Observed efficacy (Septoria tritici; 0.016 ppm) of 0% and an Observed efficacy (Alternaria solani; 4 ppm) of 35%.
Work on `CC1(C(=O)Nc2ccc(O)c(Cl)c2Cl)CCCCC1` [Fenhexamid] yielded an Observed efficacy (Septoria tritici; 16 ppm) of 28% and an inhibition of growth at 16 ppm (Leptosphaeria nodorum; [1]) of 37%.
Work on `CC1COC(Cn2cncn2)(c2ccc(Oc3ccc(Cl)cc3)cc2Cl)O1` (centres unmarked) [Difenoconazol] yielded an Observed efficacy (Pyricularia oryzae; 1 ppm) of 27%.
`Cc1ccc(C(C)NC(=O)[C@@H](NC(=O)OC(C)C)C(C)C)cc1` (some centres unmarked) [Iprovalicarb] was tested, and the Observed efficacy (Pyricularia oryzae; 4 ppm) was 6% and the Observed efficacy (Septoria tritici; 4 ppm) was 13%.
In the case of `CC(C)NC(=O)N1CC(=O)N(c2cc(Cl)cc(Cl)c2)C1=O` [Iprodion], the Observed efficacy (Pyricularia oryzae; 4 ppm) is reported as 29%, the Observed efficacy (Septoria tritici; 4 ppm) is reported as 0% and the inhibition of growth at 4 ppm (Leptosphaeria nodorum; Parastagonospora nodorum, 168 h, active alone, 4 ppm, read-out: Observed efficacy) is reported as 54%.
Work on `COCC(=O)N(c1c(C)cccc1C)[C@H](C)C(=O)OC` [Metalaxyl-M] yielded an Observed efficacy (Pyricularia oryzae; 4 ppm) of 8%, an Observed efficacy (Septoria tritici; 4 ppm) of 11% and an Observed efficacy (Leptosphaeria nodorum; active alone, 4 ppm) of 26%.
`N#CC1=C(C#N)SC(C#N)=C(C#N)S1` [Compound I.A, 2,3,5,6-tetracyano-[1,4]dithiine] gave an Observed efficacy (Botrytis cinerea; 0.063 ppm) of 1%, an Observed efficacy (Botrytis cinerea; 4 ppm) of 14% and an Observed efficacy (Pyricularia oryzae; 4 ppm) of 20%. It also gave an Observed efficacy (Septoria tritici; 0.016 ppm) of 8%, an Observed efficacy (Septoria tritici; 1 ppm) of 18% and an Observed efficacy (Septoria tritici; 4 ppm) of 74%. The inhibition of growth at 4 ppm (Leptosphaeria nodorum; Parastagonospora nodorum, 168 h, read-out: Observed efficacy) was 53%, the inhibition of growth at 1 ppm (Leptosphaeria nodorum; [1]) was 7% and the Observed efficacy (Alternaria solani; 1 ppm) was 11%. For the same compound, the Observed efficacy (Alternaria solani; 4 ppm) was 46%.
With `CO/C=C(/C(=O)OC)c1ccccc1Oc1cc(Oc2ccccc2C#N)ncn1` [Azoxystrobin] the Observed efficacy (Septoria tritici; 0.25 ppm) was 65%.
In the case of `CCCCCCCCc1c(CC)nc2ncnn2c1N` [Ametoctradin], the Observed efficacy (Pyricularia oryzae; 4 ppm) is reported as 12%, the Observed efficacy (Septoria tritici; 4 ppm) is reported as 13% and the Observed efficacy (Leptosphaeria nodorum; active alone, 4 ppm) is reported as 31%. For the same compound, the Observed efficacy (Alternaria solani; 4 ppm) was 4%.
Work on `O=C(Nc1ccccc1-c1ccc(Cl)cc1)c1cccnc1Cl` [Boscalid] yielded an Observed efficacy (Pyricularia oryzae; 16 ppm) of 6% and an inhibition of growth at 16 ppm (Leptosphaeria nodorum; [1]) of 25%.
`CC(C)[C@H](NC(=O)O)C(=O)N[C@H](C)c1nc2ccc(F)cc2s1` [Benthiavalicarb] showed an Observed efficacy (Pyricularia oryzae; 4 ppm) of 3%, an Observed efficacy (Septoria tritici; 4 ppm) of 10% and an Observed efficacy (Leptosphaeria nodorum; active alone, 4 ppm) of 27%.
